Test results published in PubChem BioAssay (NCI).
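Following 48 hours of exposure in 96-well plates, responses at five concentrations were used to interpolate endpoints linearly. TGI is the concentration that stops growth completely.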

Tests used:
Test in all cases: NCI tumour cell line growth inhibition, 48 h
786-0 renal = tested on: 786-0 renal
A498 renal = tested on: A498 renal
A549 NSCLC = tested on: A549 NSCLC
ACHN renal = tested on: ACHN renal
BT-549 breast = tested on: BT-549 breast
CAKI-1 renal = tested on: CAKI-1 renal
CCRF-CEM leukemia = tested on: CCRF-CEM leukemia
COLO 205 colon = tested on: COLO 205 colon
DU-145 prostate = tested on: DU-145 prostate
EKVX NSCLC = tested on: EKVX NSCLC
HCT-116 colon = tested on: HCT-116 colon
HL-60(TB) leukemia = tested on: HL-60(TB) leukemia
HOP-62 NSCLC = tested on: HOP-62 NSCLC
HOP-92 NSCLC = tested on: HOP-92 NSCLC
HS 578T breast = tested on: HS 578T breast
HT29 colon = tested on: HT29 colon
IGROV1 ovarian = tested on: IGROV1 ovarian
K-562 leukemia = tested on: K-562 leukemia
KM12 colon = tested on: KM12 colon
LOX IMVI melanoma = tested on: LOX IMVI melanoma
M14 melanoma = tested on: M14 melanoma
MALME-3M melanoma = tested on: MALME-3M melanoma
MCF7 breast = tested on: MCF7 breast
MDA-MB-231 breast = tested on: MDA-MB-231 breast
MDA-N = tested on: MDA-N
MOLT-4 leukemia = tested on: MOLT-4 leukemia
NCI-H23 lung = tested on: NCI-H23 lung
NCI-H522 lung = tested on: NCI-H522 lung
NCI/ADR-RES ovarian = tested on: NCI/ADR-RES ovarian
OVCAR-3 ovarian = tested on: OVCAR-3 ovarian
OVCAR-4 ovarian = tested on: OVCAR-4 ovarian
OVCAR-5 ovarian = tested on: OVCAR-5 ovarian
OVCAR-8 ovarian = tested on: OVCAR-8 ovarian
PC-3 prostate = tested on: PC-3 prostate
RPMI-8226 leukemia = tested on: RPMI-8226 leukemia
RXF 393 renal = tested on: RXF 393 renal
SF-268 CNS = tested on: SF-268 CNS
SF-295 CNS = tested on: SF-295 CNS
SF-539 CNS = tested on: SF-539 CNS
SK-MEL-2 melanoma = tested on: SK-MEL-2 melanoma
SK-MEL-28 melanoma = tested on: SK-MEL-28 melanoma
SK-MEL-5 melanoma = tested on: SK-MEL-5 melanoma
SK-OV-3 ovarian = tested on: SK-OV-3 ovarian
SN12C renal = tested on: SN12C renal
SNB-19 CNS = tested on: SNB-19 CNS
SNB-75 CNS = tested on: SNB-75 CNS
SR leukemia = tested on: SR leukemia
SW-620 colon = tested on: SW-620 colon
T-47D breast = tested on: T-47D breast
TK-10 renal = tested on: TK-10 renal
U251 CNS = tested on: U251 CNS
UACC-257 melanoma = tested on: UACC-257 melanoma
UACC-62 melanoma = tested on: UACC-62 melanoma
UO-31 renal = tested on: UO-31 renal
HCC-2998 colon = tested on: HCC-2998 colon
HCT-15 colon = tested on: HCT-15 colon
NCI-H226 lung = tested on: NCI-H226 lung
NCI-H460 lung = tested on: NCI-H460 lung
MDA-MB-435 = tested on: MDA-MB-435

SMILES: O=C1C(Br)=C(C2=CC(=P(c3ccccc3)(c3ccccc3)c3ccccc3)C=C2)C(=O)C(Br)=C1C1=CC(=P(c2ccccc2)(c2ccccc2)c2ccccc2)C=C1
- TGI (786-0 renal): > 100 µM
- TGI (A498 renal): > 100 µM
- TGI (A549 NSCLC): > 100 µM
- TGI (ACHN renal): > 100 µM
- TGI (BT-549 breast): > 100 µM
- TGI (CAKI-1 renal): > 100 µM
- TGI (CCRF-CEM leukemia): > 100 µM
- TGI (COLO 205 colon): > 100 µM
- TGI (DU-145 prostate): > 100 µM
- TGI (EKVX NSCLC): 34 µM
- TGI (HCT-116 colon): > 100 µM
- TGI (HL-60(TB) leukemia): > 100 µM
- TGI (HOP-62 NSCLC): > 100 µM
- TGI (HOP-92 NSCLC): 55.5 µM
- TGI (HS 578T breast): > 100 µM
- TGI (HT29 colon): > 100 µM
- TGI (IGROV1 ovarian): > 100 µM
- TGI (K-562 leukemia): > 100 µM
- TGI (KM12 colon): > 100 µM
- TGI (LOX IMVI melanoma): > 100 µM
- TGI (M14 melanoma): 25.1 µM
- TGI (MALME-3M melanoma): 34.1 µM
- TGI (MCF7 breast): > 100 µM
- TGI (MDA-MB-231 breast): > 100 µM
- TGI (MDA-N): > 100 µM
- TGI (MOLT-4 leukemia): > 100 µM
- TGI (NCI-H23 lung): > 100 µM
- TGI (NCI-H522 lung): 42.9 µM
- TGI (NCI/ADR-RES ovarian): > 100 µM
- TGI (OVCAR-3 ovarian): > 100 µM
- TGI (OVCAR-4 ovarian): > 100 µM
- TGI (OVCAR-5 ovarian): 31.7 µM
- TGI (OVCAR-8 ovarian): > 100 µM
- TGI (PC-3 prostate): > 100 µM
- TGI (RPMI-8226 leukemia): > 100 µM
- TGI (RXF 393 renal): > 100 µM
- TGI (SF-268 CNS): > 100 µM
- TGI (SF-295 CNS): > 100 µM
- TGI (SF-539 CNS): > 100 µM
- TGI (SK-MEL-2 melanoma): > 100 µM
- TGI (SK-MEL-28 melanoma): > 100 µM
- TGI (SK-MEL-5 melanoma): > 100 µM
- TGI (SK-OV-3 ovarian): > 100 µM
- TGI (SN12C renal): > 100 µM
- TGI (SNB-19 CNS): > 100 µM
- TGI (SNB-75 CNS): > 100 µM
- TGI (SR leukemia): > 100 µM
- TGI (SW-620 colon): 35 µM
- TGI (T-47D breast): > 100 µM
- TGI (TK-10 renal): > 100 µM
- TGI (U251 CNS): 30.6 µM
- TGI (UACC-257 melanoma): 95.1 µM
- TGI (UACC-62 melanoma): > 100 µM
- TGI (UO-31 renal): > 100 µM

SMILES: COc1ccc2c(c1)N=C(N)n1c(nc3ccccc31)S2
- TGI (786-0 renal): 4.39 µM
- TGI (A498 renal): 80.6 µM
- TGI (A549 NSCLC): > 100 µM
- TGI (ACHN renal): > 100 µM
- TGI (BT-549 breast): > 100 µM
- TGI (COLO 205 colon): 26.1 µM
- TGI (DU-145 prostate): > 100 µM
- TGI (HCC-2998 colon): > 100 µM
- TGI (HCT-116 colon): 15.8 µM
- TGI (HCT-15 colon): > 100 µM
- TGI (HL-60(TB) leukemia): > 100 µM
- TGI (HOP-62 NSCLC): > 100 µM
- TGI (HOP-92 NSCLC): 53.2 µM
- TGI (HS 578T breast): > 100 µM
- TGI (HT29 colon): 15.9 µM
- TGI (IGROV1 ovarian): > 100 µM
- TGI (K-562 leukemia): > 100 µM
- TGI (KM12 colon): 36.2 µM
- TGI (LOX IMVI melanoma): > 100 µM
- TGI (M14 melanoma): 15.6 µM
- TGI (MALME-3M melanoma): > 100 µM
- TGI (MCF7 breast): > 100 µM
- TGI (MDA-MB-231 breast): 32.3 µM
- TGI (MDA-N): 16 µM
- TGI (MOLT-4 leukemia): > 100 µM
- TGI (NCI-H226 lung): > 100 µM
- TGI (NCI-H23 lung): 26.2 µM
- TGI (NCI-H460 lung): > 100 µM
- TGI (NCI-H522 lung): 25.9 µM
- TGI (NCI/ADR-RES ovarian): 86.7 µM
- TGI (OVCAR-3 ovarian): 90.4 µM
- TGI (OVCAR-4 ovarian): 38.9 µM
- TGI (OVCAR-5 ovarian): 23.9 µM
- TGI (PC-3 prostate): 69.1 µM
- TGI (RPMI-8226 leukemia): > 100 µM
- TGI (RXF 393 renal): 70.5 µM
- TGI (SF-268 CNS): > 100 µM
- TGI (SF-295 CNS): > 100 µM
- TGI (SF-539 CNS): > 100 µM
- TGI (SK-MEL-2 melanoma): 28.1 µM
- TGI (SK-MEL-28 melanoma): > 100 µM
- TGI (SK-MEL-5 melanoma): 20.8 µM
- TGI (SK-OV-3 ovarian): 95.4 µM
- TGI (SN12C renal): > 100 µM
- TGI (SNB-19 CNS): > 100 µM
- TGI (SNB-75 CNS): > 100 µM
- TGI (SR leukemia): > 100 µM
- TGI (SW-620 colon): > 100 µM
- TGI (T-47D breast): 76.7 µM
- TGI (TK-10 renal): > 100 µM
- TGI (U251 CNS): 29.4 µM
- TGI (UACC-257 melanoma): 38.1 µM
- TGI (UACC-62 melanoma): 76.7 µM
- TGI (UO-31 renal): 38.4 µM

SMILES: COc1ccc(-c2nc(N3CCCC3)no2)cc1
- TGI (786-0 renal): > 100 µM
- TGI (A498 renal): > 100 µM
- TGI (A549 NSCLC): > 100 µM
- TGI (ACHN renal): > 75 µM
- TGI (BT-549 breast): > 100 µM
- TGI (CAKI-1 renal): > 100 µM
- TGI (CCRF-CEM leukemia): > 71.5 µM
- TGI (COLO 205 colon): > 100 µM
- TGI (DU-145 prostate): > 100 µM
- TGI (EKVX NSCLC): > 100 µM
- TGI (HCC-2998 colon): > 100 µM
- TGI (HCT-116 colon): > 100 µM
- TGI (HCT-15 colon): > 100 µM
- TGI (HL-60(TB) leukemia): > 100 µM
- TGI (HOP-62 NSCLC): > 100 µM
- TGI (HOP-92 NSCLC): > 94 µM
- TGI (HS 578T breast): > 100 µM
- TGI (HT29 colon): > 100 µM
- TGI (IGROV1 ovarian): > 100 µM
- TGI (K-562 leukemia): > 100 µM
- TGI (KM12 colon): > 100 µM
- TGI (LOX IMVI melanoma): > 100 µM
- TGI (M14 melanoma): > 100 µM
- TGI (MALME-3M melanoma): > 100 µM
- TGI (MCF7 breast): > 100 µM
- TGI (MDA-MB-231 breast): > 100 µM
- TGI (MDA-MB-435): > 100 µM
- TGI (MDA-N): > 100 µM
- TGI (MOLT-4 leukemia): > 100 µM
- TGI (NCI-H226 lung): > 100 µM
- TGI (NCI-H23 lung): > 100 µM
- TGI (NCI-H460 lung): > 100 µM
- TGI (NCI-H522 lung): > 94.6 µM
- TGI (NCI/ADR-RES ovarian): > 100 µM
- TGI (OVCAR-3 ovarian): > 100 µM
- TGI (OVCAR-4 ovarian): > 100 µM
- TGI (OVCAR-5 ovarian): > 100 µM
- TGI (OVCAR-8 ovarian): > 100 µM
- TGI (PC-3 prostate): > 100 µM
- TGI (RPMI-8226 leukemia): > 100 µM
- TGI (RXF 393 renal): > 72.4 µM
- TGI (SF-268 CNS): > 100 µM
- TGI (SF-295 CNS): > 100 µM
- TGI (SF-539 CNS): > 100 µM
- TGI (SK-MEL-2 melanoma): > 100 µM
- TGI (SK-MEL-28 melanoma): > 100 µM
- TGI (SK-MEL-5 melanoma): > 100 µM
- TGI (SK-OV-3 ovarian): > 100 µM
- TGI (SN12C renal): > 100 µM
- TGI (SNB-19 CNS): > 100 µM
- TGI (SNB-75 CNS): > 94.8 µM
- TGI (SW-620 colon): > 100 µM
- TGI (T-47D breast): > 100 µM
- TGI (TK-10 renal): > 100 µM
- TGI (U251 CNS): > 100 µM
- TGI (UACC-257 melanoma): > 100 µM
- TGI (UACC-62 melanoma): > 100 µM
- TGI (UO-31 renal): > 100 µM
